Assay results published in patent EP2253617A1, “Halogenated compounds as pesticides” (Bayer CropScience AG, priority 2009, dated 2010).

Key:
[1] = system: Phaedon cochleariae; assay: Phaedon test (PHAECO spray treatment); type: in vivo; settings: 500 g/ha, sprayed Chinese cabbage leaf discs, larvae, after 7 days; 100 % = all beetle larvae killed
Text: Phaedon-Test (PHAECO Spritzbehandlung)
(§1) • Lösungsmittel: 78,0 GewichtsteileAceton 1,5 Gewichtsteile Dimethylformamid • Emulgator: 0,5 Gewichtsteile Alkylarylpolyglykolether
(§2) Zur Herstellung einer zweckmäßigen Wirkstoffzubereitung vermischt man 1 Gewichtsteil Wirkstoff mit den angegebenen Mengen Lösungsmittel und Emulgator und verdünnt das Konzentrat mit emulgatorhaltigem Wasser auf die gewünschte Konzentration.
Chinakohlblattscheiben (Brassica pekinensis) werden mit einer Wirkstoffzubereitung der gewünschten Konzentration gespritzt und nach dem Abtrocknen mit Larven des Meerrettichblattkäfers (Phaedon cochleariae) besetzt.
Nach 7 Tagen wird die Wirkung in % bestimmt. Dabei bedeutet 100 %, dass alle Käferlarven abgetötet wurden; 0 % bedeutet, dass keine Käferlarven abgetötet wurden.

[2] = system: Boophilus microplus; assay: Boophilus microplus test (BOOPMI injection); type: in vivo; settings: 20 µg / Tier, injection into the abdomen, after 7 days; 100 % = no tick laid fertile eggs
Protocol: Boophilus microplus -Test (BOOPMI Injektion)
(§3) Lösungsmittel: Dimethylsulfoxid
Zur Herstellung einer zweckmäßigen Wirkstoffzubereitung vermischt man 10 mg Wirkstoff mit 0,5 ml Lösungsmittel und verdünnt das Konzentrat mit Wasser auf die gewünschte Konzentration. Die Wirkstofflösung wird in das Abdomen (Boophilus microplus) injiziert, die Tiere werden in Schalen überführt und in einem klimatisierten Raum aufbewahrt. Die Wirkungskontrolle erfolgt auf Ablage fertiler Eier. Nach 7 Tagen wird die Wirkung in % bestimmt. Dabei bedeutet 100%, dass keine Zecke fertile Eier gelegt hat.

[3] = system: Lucilia cuprina Larven; assay: Lucilia cuprina test (LUCICU); type: in vivo; settings: 100 ppm, treated horse meat, larvae, after 2 days; 100 % = all larvae killed
Protocol: Lucilia cuprina-Test (LUCICU)
as §3
Zur Herstellung einer zweckmäßigen Wirkstoffzubereitung vermischt man 10 mg Wirkstoff mit 0,5 ml Dimethylsulfoxid und verdünnt das Konzentrat mit Wasser auf die gewünschte Konzentration.Gefäße, die Pferdefleisch enthalten, das mit der Wirkstoffzubereitung der gewünschten Konzentration behandelt wurde, werden mit Lucilia cuprina Larven besetzt.
Nach 2 Tagen wird die Abtötung in % bestimmt. Dabei bedeutet 100 %, dass alle Larven abgetötet wurden; 0 % bedeutet, dass keine Larven abgetötet wurden.

[4] = physchem
[5] = system: Spodoptera frugiperda; assay: Spodoptera frugiperda test (SPODFR spray treatment); type: in vivo; settings: 500 g/ha, sprayed maize leaf discs, caterpillars, after 7 days; 100 % = all caterpillars killed
Text: Spodoptera frugiperda-Test (SPODFR Spritzbehandlung)
as §1, §2
Maisblattscheiben (Zea mays) werden mit einer Wirkstoffzubereitung der gewünschten Konzentration gespritzt und nach dem Abtrocknen mit Raupen des Heerwurms (Spodoptera frugiperda) besetzt.Nach 7 Tagen wird die Wirkung in % bestimmt. Dabei bedeutet 100 %, dass alle Raupen abgetötet wurden; 0 % bedeutet, dass keine Raupe abgetötet wurde.

[6] = system: Ctenocephalides felis; assay: Ctenocephalides felis oral test (CTECFE); type: in vivo; settings: 100 ppm in citrated cattle blood, oral uptake, adult fleas, after 2 days; 100 % = all fleas killed
Protocol: Ctenocephalides felis oral (CTECFE)
Lösungsmittel: 1 Gewichtsteil Dimethylsulfoxid
Zwecks Herstellung einer zweckmäßigen Wirkstoffzubereitung vermischt man 10 mg Wirkstoff mit 0,5 ml Dimethylsulfoxid. Ein Teil des Konzentrats wird mit citriertem Rinderblut verdünnt und die gewünschte Konzentration hergestellt.
20 nüchterne adulte Flöhe (Ctenocephalides felis) werden in eine Kammer eingesetzt, die oben und unten mit Gaze verschlossen ist. Auf die Kammer wird ein Metallzylinder gestellt, dessen Unterseite mit Parafilm verschlossen ist. Der Zylinder enthält die Blut-Wirkstoffzubereitung, die von den Flöhen durch die Parafilmmembran aufgenommen werden kann. Nach 2 Tagen wird die Abtötung in % bestimmt. Dabei bedeutet 100 %, dass alle Flöhe abgetötet wurden; 0 % bedeutet, dass kein Floh abgetötet wurde.

[7] = system: Tetranychus urticae; type: in vivo; settings: foliar, 500 g/ha, 144 h
Text: Tetranychus-Test, OP-resistent (TETRUR Spritzbehandlung)
as §1, §2
Bohnenblattscheiben (Phaseolus vulgaris), die von allen Stadien der Gemeinen Spinnmilbe (Tetranychus urticae) befallen sind, werden mit einer Wirkstoffzubereitung der gewünschten Konzentration gespritzt.
Nach 6 Tagen wird die Wirkung in % bestimmt. Dabei bedeutet 100 %, dass alle Spinnmilben abgetötet wurden; 0 % bedeutet, dass keine Spinnmilben abgetötet wurden.

[8] = system: Musca domestica Adulten; assay: Musca domestica test (MUSCDO); type: in vivo; settings: 100 ppm, treated sponge, adults, after 2 days; 100 % = all flies killed
Protocol: Musca domestica-Test (MUSCDO)
as §3
Zur Herstellung einer zweckmäßigen Wirkstoffzubereitung vermischt man 10 mg Wirkstoff mit 0,5 ml Dimethylsulfoxid und verdünnt das Konzentrat mit Wasser auf die gewünschte Konzentration. Gefäße, die einen Schwamm enthalten, der mit der Wirkstoffzubereitung der gewünschten Konzentration behandelt wurde, werden mit Musca domestica Adulten besetzt.
Nach 2 Tagen wird die Abtötung in % bestimmt. Dabei bedeutet 100 %, dass alle Fliegen abgetötet wurden; 0 % bedeutet, dass keine Fliegen abgetötet wurden.

SMILES	Wirkung [1]	Wirkung [2]	Wirkung (Abtötung in %) [3]	chromatographic logP [4]	Wirkung [5]	Wirkung (Abtötung in %) [6]	Wirkung [7]	Wirkung (Abtötung in %) [8]
Cn1nc(C(F)(F)C(F)(F)F)c(C(F)(F)F)c1C(=O)Nc1ccc(Cl)c(C(=O)Nc2ccc(C(F)(F)F)cc2)c1 [Ia-36]	100%	100%	90%	4.4	100%	–	–	–
Cn1nc(C(F)(F)C(F)(F)F)c(C(F)(F)F)c1C(=O)Nc1ccc(Cl)c(C(=O)Nc2ccccn2)c1 [Ia-8, N-[4-Chlor-3-(pyrid-2-yl-carbamoyl)phenyl]-1-methyl-3-(pentafluorethyl)-4-(trifluormethyl)-1H-pyrazol-5-carboxamid]	100%	100%	100%	3.53	100%	100%	80%	–
Cn1nc(C(F)(F)C(F)(F)F)c(C(F)(F)F)c1C(=O)Nc1ccc(Cl)c(C(=O)Nc2ccc(Cl)cc2)c1 [Ia-28]	100%	100%	100%	4.23	100%	80%	80%	–
Cn1nc(C(F)(F)C(F)(F)F)c(C(F)(F)F)c1C(=O)Nc1ccc(Cl)c(C(=O)Nc2ccccc2Cl)c1 [Ia-31]	100%	–	–	4.28	100%	95%	–	–
Cn1nc(C(F)(F)C(F)(F)F)c(C(F)(F)F)c1C(=O)Nc1ccc(Cl)c(C(=O)Nc2cc(Cl)ccn2)c1 [Ia-26]	100%	100%	100%	4.17	100%	80%	90%	80%
Cc1cc(NC(=O)c2cc(NC(=O)c3c(C(F)(F)F)c(C(F)(F)C(F)(F)F)nn3C)ccc2Cl)ccc1F [Ia-29]	100%	100%	100%	4.23	100%	90%	–	–
Cn1nc(C(F)(F)C(F)(F)F)c(C(F)(F)F)c1C(=O)Nc1ccc(Cl)c(C(=O)Nc2ccc(Cl)nc2)c1 [Ia-11]	100%	100%	100%	3.68	100%	80%	90%	–
COc1cccc(NC(=O)c2cc(NC(=O)c3c(C(F)(F)F)c(C(F)(F)C(F)(F)F)nn3C)ccc2Cl)c1 [Ia-16]	100%	100%	90%	3.84	100%	95%	80%	–
Cn1nc(C(F)(F)C(F)(F)F)c(C(F)(F)F)c1C(=O)Nc1ccc(Cl)c(C(=O)Nc2ccccc2)c1 [Ia-15]	100%	100%	100%	3.84	100%	100%	90%	–
Cn1nc(C(F)(F)C(F)(F)F)c(C(F)(F)F)c1C(=O)Nc1ccc(Cl)c(C(=O)Nc2cccc(Cl)c2)c1 [Ia-30]	100%	100%	100%	4.28	100%	90%	90%	–
Cn1nc(C(F)(F)C(F)(F)F)c(C(F)(F)F)c1C(=O)Nc1ccc(Cl)c(C(=O)Nc2ccc(F)cc2)c1 [Ia-17]	100%	100%	100%	3.89	100%	90%	80%	100%
Cn1nc(C(F)(F)C(F)(F)F)c(C(F)(F)F)c1C(=O)Nc1ccc(Cl)c(C(=O)Nc2cccnc2)c1 [Ia-2]	100%	100%	–	2.69	100%	100%	90%	–
Cn1nc(C(F)(F)C(F)(F)F)c(C(F)(F)F)c1C(=O)Nc1ccc(Cl)c(C(=O)Nc2ccccc2F)c1 [Ia-18, N-{4-Chlor-3-[(2-fluorphenyl)carbamoyl]phenyl}-1-methyl-3-(pentafluorethyl)-4-(trifluormethyl)-1H-pyrazol-5-carboxamid]	100%	100%	–	3.94	100%	100%	100%	–
Cn1nc(C(F)(F)C(F)(F)F)c(C(F)(F)F)c1C(=O)Nc1ccc(Cl)c(C(=O)Nc2ccc(F)cc2F)c1 [Ia-22]	100%	100%	100%	4.05	100%	100%	100%	90%
